{"source": "patent US4745112A", "about": "“Oxadiazolylimidazobenzodiazepine, compositions, and method III” (A/S Ferrosan, priority 1985, dated 1988)", "key": {"[1]": {"tested_on": "benzodiazepine receptors", "assay": "In vivo inhibition of 3H-flunitrazepam binding to mouse forebrain membranes, test substances i.p. (Procedure 130)", "conditions": "3H-flunitrazepam i.v., dose inhibiting 50% of specific forebrain binding", "experimental": "I. In vivo inhibition of ^3 H-flunitrazepam binding to mouse forebrain membranes by test substances administered intraperitoneally. (Procedure 130)\nTwenty minutes after a dose of ^3 H-flunitrazepam (^3 H-FNM) (200 μCi/kg, i.v.) the amount of specific ^3 H-FNM binding to brain benzodiazepine receptors has reached its maximal value.\nSuspensions of test substances (2 mg/ml) are prepared in 5% Duphasol-X* by sonification for 10 min using a Branson B15 microtip ultrasonifier (setting 7). Groups of three mice (female, NMR, 18-22 gram) are injected with the test substance at 100 mg/kg intraperitoneally. Fifteen minutes after test substance administration the mice are challenged with 4 μCi intravenously of ^3 H-FNM (70-90 Ci/mole) in 200 μl physiological saline. Twenty minutes after ^3 H-FNM administration mice are sacrificed by decapitation, the forebrains rapidly excised (within 30 sec) and homogenized in 12 ml of icecold 25 mM KH2 PO4, pH 7.1, using an Ultra-Turrax homogenizer fitted with an N 10 shaft. Two aliquots of 1 ml are immediately filtered through Whatman GF/C glassfibre filters and washed with 2×5 ml of the above mentioned buffer. The amounts of radioactivity on the filters are determined by conventional scintillation counting. One group of untreated mice serves as controls. One to three mice are injected with 25 mg/kg clonazepam i.p. 30 minutes before ^3 H-FNM to determine the amount of non-specific ^3 H-FNM binding, which should be between 8-15% of total binding.\nWhen doses of 100 mg/kg inhibit more than 50% of specific ^3 H-flunitrazepam binding; test substances are administered in doses, which are factors of 3.16 times lower than 100 mg/kg.\nThe ED50 for a test substance is defined as that dose which inhibits 50% of specific ^3 H-FNM binding. Specific binding is the amount of binding in controls minus the amount binding in clonazepam-treated mice.\nThe ED50 value is determined from dose response curves. If only one dose of test substance is administered the ED50 value is calculated as follows, provided that the inhibition of specific binding is within the range of 25-75%: [formula] where Co is specific binding in controls and Cx is specific binding in mice treated with test substance."}, "[2]": {"tested_on": "pentylenetetrazol induced tonic convulsions", "assay": "Pentazol tonic conv. mice i.p. (Procedure 401)", "type": "in vivo, mice (NMRI)", "conditions": "Mus musculus, ip, 0.5 h, i.p. 30 min before pentylenetetrazol 150 mg/kg s.c., tonic seizures, read-out: ED50 activity against pentazol induced convulsions, tonic", "experimental": "III. Pentazol tonic conv. mice i.p. (Procedure 401)\n(§1) Pentylenetetrazol induces clonic and tonic convulsions in mice at doses of 60-120 mg/kg s.c. The mechanism is unknown but seem to be due to some effects through the GABA receptor/benzodiazepine receptor/chloride ionophore complex. Antagonism of convulsions induced by maximal doses of pentylenetetrazol is considered predictive for drugs effective against petit mal epilepsia and anxiety.\n150 mg/kg pentylenetetrazol (Pentazol, Sigma) dissolved in 0.9% NaCl is given by the subcutaneous route in volumes of 15 ml/kg to male or female NMRI mice weighing 20-25 g 30 min after an intraperitoneal injection of a test compound.\nThe ED50 value is calculated as the dose in μg/kg where seizures are inhibited in 50% of the animals using a computer program based on the method of Litchfield and Wilcoxon (1949)."}, "[3]": {"tested_on": "pentylenetetrazol induced clonic convulsions", "assay": "Pentazol clonic conv. mice (i.p.) (Procedure 400)", "type": "in vivo, mice (NMRI)", "conditions": "Mus musculus, ip, 0.5 h, i.p. 30 min before pentylenetetrazol 150 mg/kg s.c., clonic seizures, read-out: ED50 activity against pentazol induced convulsions, clonic", "experimental": "II. Pentazol clonic conv. mice (i.p.) (Procedure 400)\nas §1, with “seems” for “seem”\n150 mg/kg pentylenetetrazol dissolved in 0.9% NaCl is given by the subcutaneous route in volume of 15 ml/kg to male or female NMRI mice weighing 20-25 g 30 min after an intraperitoneal injection of a test compound.\nThe ED50 value is calculated as the dose in μg/kg at which seizures are inhibited in 50% of the animals using a computer program based on the method of Litchfield and Wilcoxon (1949)."}}}
{"smiles": "O=C1c2c(Cl)cccc2-n2cnc(-c3nc(C4CC4)no3)c2C2CCCN12", "note": "(stereo not drawn)", "values": [{"measurement": "ED50 binding in vivo", "setting": "[1]", "value": 0.23, "unit": "mg/kg"}, {"measurement": "ED50", "setting": "[2]", "value": 0.08, "unit": "mg/kg"}]}
{"smiles": "O=C1c2c(Cl)cccc2-n2cnc(-c3noc(C4CC4)n3)c2C2CCCN12", "note": "(stereo not drawn)", "values": [{"measurement": "ED50 binding in vivo", "setting": "[1]", "value": 0.96, "unit": "mg/kg"}]}
{"smiles": "CN1Cc2c(-c3noc(C4CC4)n3)ncn2-c2cccc(C(F)(F)F)c2C1=O", "values": [{"measurement": "ED50 binding in vivo", "setting": "[1]", "value": 0.01, "unit": "mg/kg"}, {"measurement": "ED50", "setting": "[3]", "value": 0.008, "unit": "mg/kg"}, {"measurement": "ED50", "setting": "[2]", "value": 0.003, "unit": "mg/kg"}]}
{"smiles": "CC(C)c1noc(-c2ncn3c2CN(C)C(=O)c2c(Cl)cccc2-3)n1", "values": [{"measurement": "ED50 binding in vivo", "setting": "[1]", "value": 0.2, "unit": "mg/kg"}, {"measurement": "ED50", "setting": "[3]", "value": 0.6, "unit": "mg/kg"}, {"measurement": "ED50", "setting": "[2]", "value": 0.2, "unit": "mg/kg"}]}
{"smiles": "CN1Cc2c(-c3noc(C4CC4)n3)ncn2-c2cccc(F)c2C1=O", "values": [{"measurement": "ED50 binding in vivo", "setting": "[1]", "value": 0.09, "unit": "mg/kg"}, {"measurement": "ED50", "setting": "[3]", "value": 0.02, "unit": "mg/kg"}, {"measurement": "ED50", "setting": "[2]", "value": 0.005, "unit": "mg/kg"}]}
{"smiles": "CN1Cc2c(-c3nc(C4CC4)no3)ncn2-c2cccc(Cl)c2C1=O", "values": [{"measurement": "ED50 binding in vivo", "setting": "[1]", "value": 0.06, "unit": "mg/kg"}, {"measurement": "ED50", "setting": "[3]", "value": 0.09, "unit": "mg/kg"}, {"measurement": "ED50", "setting": "[2]", "value": 0.03, "unit": "mg/kg"}]}
